From ChEMBL document CHEMBL3797051 (Medchemcomm, 2016)

What was measured:
Histone deacetylase 8 [1] = target: T1, Histone deacetylase 8 (Homo sapiens, UniProt Q9BY41); experiment: Inhibition of recombinant human HDAC8 expressed in Escherichia coli assessed as hydrolase activity using fluorogenic AC-LGK-tfa-AMC as substrate measured after 60 mins by fluorescence analysis
T1 sequence (Q9BY41 whole entry): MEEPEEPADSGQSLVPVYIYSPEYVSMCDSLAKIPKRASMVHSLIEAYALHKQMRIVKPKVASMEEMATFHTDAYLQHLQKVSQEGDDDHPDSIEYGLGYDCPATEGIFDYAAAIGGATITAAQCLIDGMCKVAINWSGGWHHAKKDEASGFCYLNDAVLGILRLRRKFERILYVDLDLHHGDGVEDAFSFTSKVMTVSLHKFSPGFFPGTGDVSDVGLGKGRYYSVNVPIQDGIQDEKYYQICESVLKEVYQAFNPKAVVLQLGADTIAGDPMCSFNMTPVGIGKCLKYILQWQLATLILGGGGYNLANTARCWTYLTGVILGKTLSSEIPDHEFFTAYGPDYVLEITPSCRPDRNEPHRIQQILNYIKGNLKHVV

[2] = target: T2, Protein deacetylase HDAC6 (Homo sapiens, UniProt Q9UBN7); experiment: Inhibition of His-tagged recombinant human HDAC6 expressed in insect cells assessed as hydrolase activity using fluorogenic AC-LGK-ac-AMC as substrate measured after 60 mins by fluorescence analysis
T2 sequence (Q9UBN7 whole entry): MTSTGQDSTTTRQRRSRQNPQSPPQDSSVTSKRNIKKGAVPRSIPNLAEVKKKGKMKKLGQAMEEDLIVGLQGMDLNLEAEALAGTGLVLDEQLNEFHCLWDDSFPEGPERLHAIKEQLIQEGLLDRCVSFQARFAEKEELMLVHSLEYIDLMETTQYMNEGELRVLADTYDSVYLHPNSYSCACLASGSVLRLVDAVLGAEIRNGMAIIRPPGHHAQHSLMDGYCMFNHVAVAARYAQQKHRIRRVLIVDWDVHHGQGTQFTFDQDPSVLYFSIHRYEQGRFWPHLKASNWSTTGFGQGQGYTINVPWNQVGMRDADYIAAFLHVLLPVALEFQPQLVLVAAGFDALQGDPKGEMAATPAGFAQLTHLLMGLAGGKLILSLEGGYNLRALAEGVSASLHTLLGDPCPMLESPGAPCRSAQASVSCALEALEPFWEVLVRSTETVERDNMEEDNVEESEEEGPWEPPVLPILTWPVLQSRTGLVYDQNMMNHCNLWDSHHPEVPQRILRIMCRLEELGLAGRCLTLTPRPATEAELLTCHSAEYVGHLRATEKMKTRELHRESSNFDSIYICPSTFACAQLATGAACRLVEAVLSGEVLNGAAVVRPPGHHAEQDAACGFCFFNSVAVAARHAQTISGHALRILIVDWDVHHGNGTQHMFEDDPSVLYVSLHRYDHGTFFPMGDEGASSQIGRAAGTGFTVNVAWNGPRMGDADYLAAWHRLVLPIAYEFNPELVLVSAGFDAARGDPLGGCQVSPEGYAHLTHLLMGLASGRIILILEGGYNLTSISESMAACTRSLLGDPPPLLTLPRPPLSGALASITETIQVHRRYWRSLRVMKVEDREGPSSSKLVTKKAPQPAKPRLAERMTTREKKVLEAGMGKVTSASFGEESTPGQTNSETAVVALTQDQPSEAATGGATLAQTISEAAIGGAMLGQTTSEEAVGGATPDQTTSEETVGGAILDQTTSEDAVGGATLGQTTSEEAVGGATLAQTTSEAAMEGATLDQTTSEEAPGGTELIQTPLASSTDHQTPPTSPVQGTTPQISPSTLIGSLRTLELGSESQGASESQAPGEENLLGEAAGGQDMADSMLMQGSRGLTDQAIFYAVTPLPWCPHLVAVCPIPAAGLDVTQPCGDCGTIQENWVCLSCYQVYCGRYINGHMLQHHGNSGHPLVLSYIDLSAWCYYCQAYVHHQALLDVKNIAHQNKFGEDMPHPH

Histone deacetylase 4 = Histone deacetylase 4 (Homo sapiens, UniProt P56524); experiment: Inhibition of N-terminal GST-tagged recombinant human HDAC4 assessed as hydrolase activity using fluorogenic […] as substrate measured after 60 mins by fluorescence analysis
Histone deacetylase 8 [3] = target: T1, Histone deacetylase 8; experiment: Inhibition of recombinant human HDAC8 expressed in Escherichia coli assessed as inhibition constant ki,1 using fluorogenic AC-LGK-tfa-AMC as substrate measured after 60 mins by fluorescence analysis

Sequence of Histone deacetylase 4 (P56524 whole entry): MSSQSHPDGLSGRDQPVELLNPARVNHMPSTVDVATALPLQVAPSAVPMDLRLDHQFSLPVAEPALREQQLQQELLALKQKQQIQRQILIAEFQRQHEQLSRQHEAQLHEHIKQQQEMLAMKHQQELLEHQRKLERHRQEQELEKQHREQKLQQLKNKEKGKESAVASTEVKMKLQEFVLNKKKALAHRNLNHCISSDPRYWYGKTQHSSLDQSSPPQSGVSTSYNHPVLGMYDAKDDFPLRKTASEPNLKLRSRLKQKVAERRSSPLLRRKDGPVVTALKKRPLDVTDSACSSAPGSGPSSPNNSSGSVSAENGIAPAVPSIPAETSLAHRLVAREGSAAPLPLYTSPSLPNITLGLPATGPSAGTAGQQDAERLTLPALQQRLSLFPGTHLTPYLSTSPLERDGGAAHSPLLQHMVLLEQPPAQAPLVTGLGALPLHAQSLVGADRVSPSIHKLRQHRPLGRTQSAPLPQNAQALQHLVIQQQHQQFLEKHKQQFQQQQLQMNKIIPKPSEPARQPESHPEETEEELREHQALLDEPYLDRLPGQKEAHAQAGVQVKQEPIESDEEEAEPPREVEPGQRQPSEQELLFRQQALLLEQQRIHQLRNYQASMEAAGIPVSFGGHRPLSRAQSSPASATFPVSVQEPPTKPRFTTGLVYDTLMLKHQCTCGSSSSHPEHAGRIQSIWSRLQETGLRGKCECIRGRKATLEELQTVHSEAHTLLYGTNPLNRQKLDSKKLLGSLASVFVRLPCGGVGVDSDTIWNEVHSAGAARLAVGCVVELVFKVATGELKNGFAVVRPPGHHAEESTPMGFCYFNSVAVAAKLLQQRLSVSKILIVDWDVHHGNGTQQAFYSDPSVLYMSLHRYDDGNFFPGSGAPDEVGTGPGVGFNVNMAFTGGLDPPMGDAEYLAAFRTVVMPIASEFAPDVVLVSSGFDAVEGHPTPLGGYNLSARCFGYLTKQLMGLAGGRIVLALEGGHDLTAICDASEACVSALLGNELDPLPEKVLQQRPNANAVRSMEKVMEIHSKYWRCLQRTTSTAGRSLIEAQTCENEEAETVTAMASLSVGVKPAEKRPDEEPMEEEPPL

Ki (Histone deacetylase 8 [1]): 0.033 µM
Ki [2]: 4.5 µM
Ki (Histone deacetylase 4): 0.0051 µM
Ki (Histone deacetylase 8 [3]): 7.3 µM
Compound: O=C(CCCCCCC(=O)C(F)(F)F)Nc1ccccc1
